Results taken from patent publication US8524781B2, “Organosulfur compounds, a method of making organosulfur compounds and their use for inhibiting the growth of tumour cells” (University of Cape Town, priority 2008, dated 2013).
Like-named read-outs stand apart in the source and are kept apart here.

Legend:
Type in all cases: cell-based
WHCO1 cells = test: MTT assay, inhibition of cell growth of WHCO1 cells; details: for IC50: WHCO1 oesophageal epithelial cancer cells, MTT, 48 hours incubation
Description: (§1) The compounds were evaluated for their in vitro ability to inhibit cell growth of cultured tumour cells using the 3-(4,5-dimethylthiazol-2-yl)-2,5-diphenyltetrazolium bromide (MTT) assay. These cell types include:
3. WHCO1 cells which are oesophageal epithelial cancer cells; and
(§2) One oesophageal squamous cell carcinoma cell line WHCO1 originally established from surgical biopsies of primary oesophageal squamous cell carcinomas, a transformed fibroblast cell line CT-1 or human breast epithelial cells MDA-MB-231 were cultured in DMEM containing 10% foetal calf serum and 1% penicillin and streptomycin at 37° C. in a humidified atmosphere of 5% CO2. For the MTT assay, 3×10^3 cells were plated in 96-well plates in 90 μL DMEM per well. Compounds solubilized in DMEM+1% DMSO (10 μl) were added to cells and DMEM+1% DMSO, (10 μl) alone was added to the control to give a final concentration of 0-200 μM compound and 0.1% DMSO. After 48 hours incubation period, 10 μL of the MTT labelling reagent (final concentration 0.45 mg/ml) was added to each well and incubated for 4 hours in a humidified atmosphere at 37° C. One hundred micro litres of the solubilization solution was added to each well and the plates were incubated overnight at 37° C. The spectrophotometric absorbance of the wells was measured at 595 nm using a microtiter plate reader.

CT-1 cells = test: MTT assay, inhibition of cell growth of CT-1 cells; details: CT-1 transformed WI38 fibroblasts, 48 hours incubation, read-out: CT1 IC50
Description: as §1
2. CT-1 cells which are transformed WI38 fibroblasts;
as §2

MDA-MB-231 cells = test: MTT assay, inhibition of cell growth of MDA-MB-231 cells; details: MDA-MB-231 human breast epithelial cancer cells, 48 hours incubation
Description: as §1
5. MDA-MB-231 cells which are human breast epithelial cancer cells; and
as §2

IC50 (MDA-MB-231 cells)	Structure (SMILES)	IC50 (WHCO1 cells)	IC50 (CT-1 cells)	IC50 (WHCO1 cells; WHCO1, 48 h)	IC50 (CT-1 cells; Homo sapiens, WI-38, 48 h)	activity relative to ajoene at inhibiting growth of WHCO1 oesophageal cancer cells in vitro (WHCO1 cells; compared with ajoene, WHCO1 cells)
–	C=CCSSC=CC[S+]([O-])CCCOCc1ccc(OC)cc1 (mixture of isomers) [Compound E-9, (E/Z)-12-(p-methoxybenzyloxy)-4,5,9-trithiadodeca-1,6-diene-9-oxide]	19.1 µM	23.5 µM	–	–	–
–	C=CCSSC=CC[S+]([O-])CCCN1C(=O)c2ccccc2C1=O (mixture of isomers) [Compound E-5, (E/Z)-12-phthalimido-4,5,9-trithiadodeca-1,6-diene-9-oxide]	68.9 µM	95.9 µM	–	–	–
25.9 µM	C=CCSS/C=C/C[S+]([O-])CCC (mixture of isomers) [Compound E-3, (E/Z)-4,5,9-trithiadodeca-1,6-diene-9-oxide]	–	–	35.8 µM	26.7 µM	–
–	COc1ccc(C[S+]([O-])CC=CSSCc2ccc(F)cc2)cc1 (mixture of isomers) [EZ-10, (E/Z)-1-(p-fluorophenyl)-8-(p-methoxyphenyl)-2,3,7-trithiaocta-4-ene-7-oxide]	13.6 µM	–	–	–	–
6.6 µM	C=CCSSC=CC[S+]([O-])Cc1ccc(OC)cc1 (mixture of isomers) [EZ-8, (E/Z)-10-(p-methoxyphenyl)-4,5,9-trithiadeca-1,6-diene-9-oxide]	–	–	7.12 µM	11.2 µM	–
–	CCC[S+]([O-])CC=CSSC (mixture of isomers) [Compound E-15, (E/Z)-2,3,7-trithiadeca-4-ene-7-oxide]	47.4 µM	10.3 µM	–	–	–
–	C=CCSS/C=C/C[S+]([O-])CC=C (stereo not drawn) [E-ajoene, 4,5,9-trithiadodeca-1,6,11-triene-9-oxide, reference compound]	–	–	20.9 µM	17.6 µM	–
–	C=CCSSC=CC[S+]([O-])Cc1ccccc1 (mixture of isomers) [EZ-7, (E/Z)-10-phenyl-4,5,9-trithiadeca-1,6-diene-9-oxide]	–	–	8.8 µM	16.6 µM	–
19.2 µM	C=CCSS/C=C\C[S+]([O-])CCC (mixture of isomers) [Compound Z-3, (E/Z)-4,5,9-trithiadodeca-1,6-diene-9-oxide]	–	–	21.6 µM	17 µM	–
–	C=CCSSC=CC[S+]([O-])C(C)(C)C (mixture of isomers) [EZ-6, (E/Z)-10,10-dimethyl-4,5,9-trithiaundeca-1,6-diene-9-oxide]	25.4 µM	33.1 µM	–	–	–
–	C=CCSSC=CC[S+]([O-])CCCN1C(=O)c2ccccc2C1=O (mixture of isomers) [Compound Z-5, (E/Z)-12-phthalimido-4,5,9-trithiadodeca-1,6-diene-9-oxide]	36 µM	34.6 µM	–	–	–
1.19 µM	COc1ccc(C[S+]([O-])CC=CSSCc2ccccc2)cc1 (mixture of isomers) [EZ-12, (E/Z)-1-phenyl-8-(p-methoxyphenyl)-2,3,7-trithiaocta-4-ene-7-oxide]	–	–	3.05 µM	–	–
–	CCCSSC=CC[S+]([O-])CCC (mixture of isomers) [Compound E-14, (E/Z)-4,5,9-trithiadodeca-6-ene-9-oxide]	33.8 µM	9.32 µM	–	–	–
–	C=CCSSC=CC[S+]([O-])CCCOCc1ccc(OC)cc1 (mixture of isomers) [Compound Z-9, (E/Z)-12-(p-methoxybenzyloxy)-4,5,9-trithiadodeca-1,6-diene-9-oxide]	16.9 µM	21.7 µM	–	–	–
–	C=CCSSC=CC[S+]([O-])CCCO (mixture of isomers) [Compound E-4, (E/Z)-4,8,9-trithiadodeca-6,11-diene-1-ol-4-oxide]	26.8 µM	23.1 µM	–	–	–
–	C=CCSS/C=C/C[S+]([O-])CC=C (stereo not drawn) [Z-ajoene, 4,5,9-trithiadodeca-1,6,11-triene-9-oxide, reference compound]	20.5 µM	15.5 µM	–	–	–
–	C=CCSSC=CC[S+]([O-])CCCO (mixture of isomers) [Compound Z-4, (E/Z)-4,8,9-trithiadodeca-6,11-diene-1-ol-4-oxide]	37.9 µM	22.8 µM	–	–	–

Structure (SMILES)	IC50 (MDA-MB-231 cells)	IC50 (WHCO1 cells)	IC50 (CT-1 cells)	IC50 (WHCO1 cells; WHCO1, 48 h)	IC50 (CT-1 cells; Homo sapiens, WI-38, 48 h)	activity relative to ajoene at inhibiting growth of WHCO1 oesophageal cancer cells in vitro (WHCO1 cells; compared with ajoene, WHCO1 cells)
COc1ccc(CSSC=CC[S+]([O-])Cc2ccc(OC)cc2)cc1 (mixture of isomers) [EZ-11, (E/Z)-1-(p-methoxyphenyl)-8-(p-methoxyphenyl)-2,3,7-trithiaocta-4-ene-7-oxide]	0.82 µM	1.34 µM	–	–	–	fifteen times more active than ajoene
CCC[S+]([O-])CC=CSSCCCNS(=O)(=O)c1cccc2c(N(C)C)cccc12 (mixture of isomers) [EZ-13, (E/Z)-1-(dansylamino)-4,5,9-trithiadodeca-6-ene-9-oxide]	42.6 µM	14.2 µM	17.7 µM	–	–	–
